Experimental data published in US7033829B2, “Method to inhibit cell growth using oligonucleotides” (Trustees of Boston University, priority 2000, dated 2006).
Oligonucleotides are written 5' to 3', each unit as a sugar letter and its base; * is a phosphorothioate linkage, no mark a phosphodiester; rarer units and linkages stand in square brackets, end groups in braces. Plain capitals give the bases only. d = 2'-deoxy (DNA); {P} = phosphate

Key:
telomere 3′ overhang = experiment: 3′ overhang assay in fibroblasts; assay type: cell-based, human; details: 40 μM; up to 7 days
[1] = test system: UV-damaged CAT reporter plasmid in human fibroblasts; experiment: Repair of UV-damaged CAT reporter plasmid in fibroblasts; assay type: cell-based; details: 100 μM for five days before transfection; plasmid 100 mJ/cm^2 UVB
Text: (§1) Expression of a UV-damaged reporter plasmid containing the bacterial chloramphenicol acetyltransferase (CAT) gene under the control of SV40 promoter and enhancer sequences was previously shown to detect decreased DNA repair capacity in human lymphocytes associated with aging and early-onset skin cancers. This reporter plasmid was used to measure the DNA repair capacity of normal neonatal human skin-derived fibroblasts and keratinocytes.
(§2) Keratinocytes from newborns were established as described (Stanulis-Praeger, B. M. and Gilchrest, B. A., J. Cell. Physiol. 139:116–124 (1989)) using a modification of the method of Rheinwald and Green (Gilchrest, B. A. et al., J. Invest. Dermatol. 101:666–672 (1993)). First-passage keratinocytes were maintained in a non-differentiating low Ca^2+ medium (K-Stim, Collaborative Biomedical Products, Bedford, Mass.). […] CAT enzyme activity was determined using the liquid scintillation counting protocol and components of the assay system kit. […] Protein concentration in the cell extracts was determined by the method of Bradford (Anal. Biochem. 72:248 […]). CAT activity was expressed as c.p.m./100 μg protein and is represented as percent activity of cells transfected with sham-irradiated, non-damaged, plasmid.

p53 = p53 (Homo sapiens, UniProt P04637); experiment: p53 assay using hGH reporter plasmid in keratinocytes; assay type: cell-based; set-up: expressed in transfected cells; vector from Dr. Bert Vogelstein; details: 100 μM; 24 hours
Protocol: Transfection was performed in the presence of 100 μM pTpT (Midland Certified Reagent Company, Midland, Tex.) or an equal volume of diluent. At the same time, the PSV-β-galactosidase control vector (Promega, Madison, Wis.) was co-transfected to determine the transfection efficiency (Norton and Coffin, 1985). Four hours after transfection, the medium was removed and replaced with K-Stim medium with or without 100 μM pTpT. Twenty-four hours after transfection and pTpT treatment, 400 μl of the medium was harvested from each 35 mm culture dish, and 100 μl of ^125I-hGH antibody solution (Nichols Institute Diagnostics, San Juan Capistrano, Calif.) was added to detect secreted hGH as described below. The cells were harvested in a Reporter Lysis Buffer (Promega) using a protocol provided by the manufacturer, and 150 μl of this lysate was used for the β-galactosidase assay using a β-galactosidase assay kit (Promega). Samples from each of triplicate culture dishes were evaluated for hGH and β-galactosidase synthesis.
To confirm the activation of p53 by pTpT in a second assay, a reporter plasmid expressing the human growth hormone (hGH) gene under the influence of a p53 inducible promoter was employed. Activation of p53 increases its binding to the consensus sequence in the plasmid, leading to transcription of the hGH coding sequence and ultimately to secretion of hGH into the medium.

[2] = test system: UV-damaged CAT reporter plasmid in human keratinocytes; experiment: Repair of UV-damaged CAT reporter plasmid in keratinocytes; assay type: cell-based; details: 100 μM for five days before transfection; plasmid 100 mJ/cm^2 UVB
Text: as §1, §2

Sequence of p53 (P04637 whole entry): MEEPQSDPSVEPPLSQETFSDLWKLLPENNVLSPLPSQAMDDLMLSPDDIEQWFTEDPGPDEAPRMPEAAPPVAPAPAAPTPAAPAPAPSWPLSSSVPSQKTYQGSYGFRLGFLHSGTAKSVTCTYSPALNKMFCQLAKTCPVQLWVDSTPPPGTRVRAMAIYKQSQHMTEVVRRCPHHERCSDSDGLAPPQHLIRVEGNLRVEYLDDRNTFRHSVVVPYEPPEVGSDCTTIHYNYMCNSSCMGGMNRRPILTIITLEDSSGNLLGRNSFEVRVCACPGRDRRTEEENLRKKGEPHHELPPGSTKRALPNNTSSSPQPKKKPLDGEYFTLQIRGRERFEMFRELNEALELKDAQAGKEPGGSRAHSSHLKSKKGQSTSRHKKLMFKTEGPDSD

Substance | degradation of the telomere 3′ overhang (telomere 3′ overhang) | CAT activity relative to sham-irradiated transfected controls [1] | increase in hGH secretion compared to diluent-treated cells (p53) | CAT activity relative to sham-irradiated transfected controls [2]
pGTTAGGGTTAG (DNA {P}-dGdTdTdAdGdGdGdTdTdAdG) [SEQ ID NO: 5] | did not result in degradation of the telomere 3′ overhang | – | – | –
thymidine dinucleotide [pTpT] | – | more than 50% | 45%±25% | more than 50%
